# Data as given in patent US20080021086A1, “Pharmaceutical Composition for Prevention or Treatment of Lipid Metabolism Disorder” (KISSEI PHARMACEUTICAL CO., LTD., priority 2004, published 2008).
# What was measured:
# [1] = test system: Type 2 diabetic patients; assay: Clinical efficacy on lipid metabolism disorders in diabetic patients (clinical study of mitiglinide calcium hydrate tablets); assay type: in vivo, human
# Experimental: The following clinical study was conducted in Type 2 diabetic patients using tablets containing 5 mg of mitiglinide calcium hydrate and tablets containing 10 mg of mitiglinide calcium hydrate.
# Patients included: Type 2 diabetic patients;
# Mode of dosing: oral administration of 5 to 20 mg as a single dose three times per day just before (5 minutes before) each meal;
# Dosing period: 28 weeks to 52 weeks;
# Major items of observation: stabilized hemoglobin A1c (HbA1c), biochemical examination of blood (total cholesterol, triglyceride, LDL-cholesterol, HDL-cholesterol, free fatty acid);
# Statistical Method: in all patients with an abnormal value of each lipid at pretreatment and without any hypolipidemic agent, significance test was conducted on the average of the final evaluation against the average of the pretreatment (*: P<0.05, **: P<0.01).
# Patients with 150 mg/dL or more of serum TG at pretreatment were picked out as an abnormal group, the efficacy of mitiglinide calcium hydrate was evaluated on the group.
# Patients with 200 mg/dL or more of serum TC at pretreatment were picked out as an abnormal group, the efficacy of mitiglinide calcium hydrate was evaluated.
# Patients with 0.86 mEq/L or more of serum free fatty acid (FFA), 120 mg/dL or more of LDL-cholesterol (LDL-C) and less than 40 mg/dL of HDL-cholesterol at pretreatment, respectively, were picked out as abnormal groups, the efficacy of mitiglinide calcium hydrate was evaluated.
# [2] = test system: diabetic patient; conditions: single dose; cited from earlier work
# [3] = after 12-week repeated administration compared to pretreatment; cited from earlier work
# [4] = test system: diabetic patients; conditions: single dose, compared to placebo; cited from earlier work
# [5] = Example 2, person, 52 weeks vs pretreatment
# [6] = Example 4, person, 40 weeks vs pretreatment
# [7] = Example 5, person, 24 weeks vs pretreatment
# [8] = Example 6, person, 52 weeks vs pretreatment
# [9] = Example 7, person, 52 weeks vs pretreatment
structure (smiles),measurement,setting,value
"O.O.O=C(O)[C@H](CC(=O)N1C[C@H]2CCCC[C@H]2C1)Cc1ccccc1.[Ca] [mitiglinide calcium hydrate, (2S)-2-benzyl-3-(cis-hexa hydro-2-isoindolinylcarbonyl)propionic acid calcium dihydrate]",FFA at the final evaluation,"[1]; Example 2, person, 10 mg till 16th week then 20 mg, after 52-week administration, pretreatment 0.94",0.26 mEq/L
same,LDL-C at the final evaluation,"[1]; Example 2, person, 10 mg till 16th week then 20 mg, after 52-week administration, pretreatment 137",108 mg/dL
same,TC at the final evaluation,"[1]; Example 2, person, 10 mg till 16th week then 20 mg, after 52-week administration, pretreatment 240",185 mg/dL
same,change of FFA,[1]; [5],−0.68 mEq/L
same,change of LDL-C,[1]; [5],-29 mg/dL
same,change of TC,[1]; [5],-55 mg/dL
same,TG at the final evaluation,"[1]; Example 3, person, 10 mg, after 52-week administration, pretreatment 171",110 mg/dL
same,change of TG,"[1]; Example 3, person, 52 weeks vs pretreatment",-61 mg/dL
same,TG at the final evaluation,"[1]; Example 4, person, 10 mg till 16th week then 20 mg, after 40-week administration, pretreatment 163",101 mg/dL
same,TC at the final evaluation,"[1]; Example 4, person, 10 mg till 16th week then 20 mg, after 40-week administration, pretreatment 214",162 mg/dL
same,change of TC,[1]; [6],-52 mg/dL
same,change of TG,[1]; [6],-62 mg/dL
same,FFA at the final evaluation,"[1]; Example 5, person with concomitant hyperlipidemia, 10 mg till 16th week then 20 mg, after 24-week administration, pretreatment 0.53",0.30 mEq/L
same,TG at the final evaluation,"[1]; Example 5, person with concomitant hyperlipidemia, 10 mg till 16th week then 20 mg, after 24-week administration, pretreatment 213",145 mg/dL
same,change of FFA,[1]; [7],−0.23 mEq/L
same,change of TG,[1]; [7],-68 mg/dL
same,LDL-C at the final evaluation,"[1]; Example 6, person with concomitant hyperlipidemia, 10 mg, after 52-week administration, pretreatment 149",134 mg/dL
same,TC at the final evaluation,"[1]; Example 6, person with concomitant hyperlipidemia, 10 mg, after 52-week administration, pretreatment 260",203 mg/dL
same,change of LDL-C,[1]; [8],-15 mg/dL
same,change of TC,[1]; [8],-57 mg/dL
same,HDL-C at the final evaluation,"[1]; Example 7, person, 10 mg, after 52-week administration, pretreatment 57",72 mg/dL
same,LDL-C at the final evaluation,"[1]; Example 7, person, 10 mg, after 52-week administration, pretreatment 129",116 mg/dL
same,TG at the final evaluation,"[1]; Example 7, person, 10 mg, after 52-week administration, pretreatment 170",100 mg/dL
same,TC at the final evaluation,"[1]; Example 7, person, 10 mg, after 52-week administration, pretreatment 226",206 mg/dL
same,change of HDL-C,[1]; [9],+15 mg/dL
same,change of LDL-C,[1]; [9],-13 mg/dL
same,change of TC,[1]; [9],-20 mg/dL
same,change of TG,[1]; [9],-70 mg/dL
same,"Average of TG, Final evaluation","[1]; all patients with 150 mg/dL or more of pretreatment TG, oral 5 to 20 mg three times per day, 28 to 52 weeks, pretreatment average 262.6, ** P<0.01 vs pretreatment",216.3** mg/dL
same,"Average of TC, After the end of administration","[1]; all patients with 200 mg/dL or more of TC at pretreatment, oral 5 to 20 mg three times per day, 28 to 52 weeks, pretreatment average 231.8, * P<0.05 vs pretreatment",226.4* mg/dL
same,"Average LDL-C, After the end of administration","[1]; patients with 120 mg/dL or more of LDL-C at pretreatment, pretreatment average 144.9, ** P<0.01",137.7** mg/dL
same,"Average FFA, After the end of administration","[1]; patients with 0.86 mEq/L or more of FFA at pretreatment, pretreatment average 1.021, ** P<0.01",0.745** mEq/L
same,overall effect on blood lipids,"[1]; patients with high blood TG, blood TC, FFA or LDL-C, or low HDL-C","remarkable effects to lower TG, TC, LDL-C or FFA, or increase HDL-C"
same,"Average HDL-C, After the end of administration","[1]; patients with less than 40 mg/dL of HDL-C at pretreatment, pretreatment average 34.7, ** P<0.01",40.3** mg/dL
CC(C)[C@H]1CC[C@H](C(=O)N[C@H](Cc2ccccc2)C(=O)O)CC1 [nateglinide],effect on postprandial increase of triglyceride,[2],suppressed postprandial increase of triglyceride
same,effect on postprandial lipid variation,[3],did not show a significant improvement
CCOc1cc(CC(=O)N[C@@H](CC(C)C)c2ccccc2N2CCCCC2)ccc1C(=O)O [repaglinide],effect on postprandial lipid variation,[4],did not show significant improving effect
